Reference: patent publication US9394297B2, “Amides as pim inhibitors” (AMGEN INC., priority 2012, dated 2016)
Where two headings read alike, the source gives them in different places.

Assays:
Pim-1 = Pim-1 (Homo sapiens (Human), UniProt P11309); experiment: Pim-Mn enzyme assay (HTRF, 384-well), Pim-1; assay type: biochemical; conditions: read-out: Pim-1-Mn IC50 IP
Pim-2 = Pim-2 (Homo sapiens (Human), UniProt Q9P1W9); experiment: Pim-Mn enzyme assay (HTRF, 384-well), Pim-2; assay type: biochemical; conditions: Pim-2 enzyme 0.5 pM, ATP 1.5 μM, BAD (S112) 0.5 μM, HTRF, 22-point curve; read-out: Pim-2-Mn IC50 IP
Chain of Pim-2 (Q9P1W9 whole entry): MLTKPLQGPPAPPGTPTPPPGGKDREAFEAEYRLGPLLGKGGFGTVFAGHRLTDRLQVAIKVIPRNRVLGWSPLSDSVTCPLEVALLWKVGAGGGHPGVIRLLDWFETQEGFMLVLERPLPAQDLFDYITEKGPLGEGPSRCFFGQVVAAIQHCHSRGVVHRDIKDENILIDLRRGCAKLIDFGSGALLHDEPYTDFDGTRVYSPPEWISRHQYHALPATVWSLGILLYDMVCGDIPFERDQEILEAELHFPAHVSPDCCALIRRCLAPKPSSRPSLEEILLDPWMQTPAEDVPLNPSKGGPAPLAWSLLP

[1] = system: KMS-12-BM myeloma cell line; experiment: Pim KMS-12 cell assay (phospho-BAD S112 / total BAD, MSD)
[2] = Pim-1 enzyme 5 pM, ATP 1.5 μM, BAD (S112) 0.5 μM, HTRF, 22-point curve
[3] = Homo sapiens, KMS-12-BM, read-out: KMS-12-BM IC50 IP, KMS-12-BM cells, phospho-BAD (S112) vs total BAD, 1 hour 50 min with compound
[4] = Homo sapiens, KMS-12-BM, read-out: KMS-12-BM IC50 IP

Chain of Pim-1 (P11309 whole entry): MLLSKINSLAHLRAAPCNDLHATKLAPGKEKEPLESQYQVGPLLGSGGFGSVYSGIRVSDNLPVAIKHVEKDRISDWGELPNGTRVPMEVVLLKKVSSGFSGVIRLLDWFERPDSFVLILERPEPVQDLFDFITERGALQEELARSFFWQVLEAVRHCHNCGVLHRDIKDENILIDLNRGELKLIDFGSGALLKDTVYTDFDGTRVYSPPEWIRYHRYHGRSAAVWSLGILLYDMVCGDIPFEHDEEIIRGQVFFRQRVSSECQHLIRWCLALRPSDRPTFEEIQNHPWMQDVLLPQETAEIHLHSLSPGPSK

Compound	IC50 (Pim-1; [2])	IC50 (Pim-2)	IC50 [1, 3]	IC50 ([1]; read-out: KMS-12-BM IC50 IP, KMS-12-BM cells, phospho-BAD (S112) vs total BAD, 1 hour 50 min with compound)	IC50 [1, 4]	IC50 (Pim-1)
Cc1nc2cccc(-c3cc4c([nH]3)CCNC4=O)c2nc1NCC(C)(C)N [Example 70, 2-(3-((2-amino-2-methylpropyl)amino)-2-methyl-5-quinoxalinyl)-1,5,6,7-tetrahydro-4H-pyrrolo[3,2-c]pyridin-4-one]	4.3 nM	6.3 nM	2910 nM			
CNc1nc2c(-c3cc4c([nH]3)CCNC4=O)cccc2nc1C [Example 219, 2-(2-methyl-3-(methylamino)quinoxalin-5-yl)-6,7-dihydro-1H-pyrrolo[3,2-c]pyridin-4(5H)-one]	7.8 nM	4.1 nM	346 nM			
Cc1nc2cccc(-c3cc4c([nH]3)CCNC4=O)c2nc1N(C)C(C)C [Example 68, 2-(2-methyl-3-(methyl(1-methylethyl)amino)-5-quinoxalinyl)-1,5,6,7-tetrahydro-4H-pyrrolo[3,2-c]pyridin-4-one]	4.5 nM	6.1 nM	445 nM			
CC1(C)CN(c2cnc3cccc(-c4cc5c([nH]4)CCNC5=O)c3n2)CCN1 [Example 214, 2-(3-(3,3-dimethylpiperazin-1-yl)quinoxalin-5-yl)-6,7-dihydro-1H-pyrrolo[3,2-c]pyridin-4(5H)-one]	4.7 nM	58 nM	9870 nM			
CCNc1nc2c(-c3cc4c([nH]3)CCNC4=O)cccc2nc1C [Example 69, 2-(3-(ethylamino)-2-methyl-5-quinoxalinyl)-1,5,6,7-tetrahydro-4H-pyrrolo[3,2-c]pyridin-4-one]	3.4 nM	1.7 nM			223 nM	
Cc1nc2cccc(-c3cc4c([nH]3)CCNC4=O)c2nc1NC1CCOC1 (racemic) [Example 71, 2-(2-methyl-3-((±)-tetrahydro-3-furanylamino)-5-quinoxalinyl)-1,5,6,7-tetrahydro-4H-pyrrolo[3,2-c]pyridin-4-one]	6.4 nM	6.1 nM	474 nM			
Cc1nc2cccc(-c3cc4c([nH]3)CCNC4=O)c2nc1NC1(C)CCCCC1 [Example 155, 2-(2-methyl-3-((1-methylcyclohexyl)amino)quinoxalin-5-yl)-6,7-dihydro-1H-pyrrolo[3,2-c]pyridin-4(5H)-one]		1.5 nM	292 nM			0.7 nM
COCC(C)(C)Nc1nc2c(-c3cc4c([nH]3)CCNC4=O)cccc2nc1C [Example 63, 2-(3-((2-methoxy-1,1-dimethylethyl)amino)-2-methyl-5-quinoxalinyl)-1,5,6,7-tetrahydro-4H-pyrrolo[3,2-c]pyridin-4-one]	4.3 nM	5.4 nM	513 nM			
Cc1nc2cccc(-c3cc4n(c3)CCNC4=O)c2nc1NC(C)(C)C [Example 174, 7-(3-(tert-butylamino)-2-methylquinoxalin-5-yl)-3,4-dihydropyrrolo[1,2-a]pyrazin-1(2H)-one]	5.9 nM	3.5 nM	336 nM			
Cc1nc2cccc(-c3cc4c([nH]3)CCNC4=O)c2nc1N [Example 218, 2-(3-amino-2-methylquinoxalin-5-yl)-6,7-dihydro-1H-pyrrolo[3,2-c]pyridin-4(5H)-one]	36 nM	17.4 nM	1090 nM			
Cc1nc2cccc(-c3cc4c([nH]3)CCNC4=O)c2nc1N[C@H]1CCCNC1 [Example 76, (S)-2-(2-methyl-3-(piperidin-3-ylamino)quinoxalin-5-yl)-6,7-dihydro-1H-pyrrolo[3,2-c]pyridin-4(5H)-one]	8.1 nM	27 nM	6130 nM			
CC1(C)COCCN1c1cnc2cccc(-c3cc4c([nH]3)CCNC4=O)c2n1 [Example 213, 2-(3-(3,3-dimethylmorpholino)quinoxalin-5-yl)-6,7-dihydro-1H-pyrrolo[3,2-c]pyridin-4(5H)-one]		3.2 nM	227 nM			1.6 nM
Cc1nc2cccc(-c3cc4c(=O)[nH]cnc4[nH]3)c2nc1NC(C)(C)CO [Example 263, 6-(3-((1-hydroxy-2-methylpropan-2-yl)amino)-2-methylquinoxalin-5-yl)-3H-pyrrolo[2,3-d]pyrimidin-4(7H)-one]	5.1 nM	5.8 nM	907 nM			
Cc1nc2cccc(-c3cc4c([nH]3)C3(CC3)CNC4=O)c2nc1NC1CC1 [Example 77, 2′-(3-(cyclopropylamino)-2-methyl-5-quinoxalinyl)-5′,6′-dihydrospiro[cyclopropane-1,7′-pyrrolo[3,2-c]pyridin]-4′(1′H)-one]	1.6 nM	3.8 nM			494 nM	
Cc1nc2cccc(-c3cc4c([nH]3)CCNC4=O)c2nc1N(C)C(C)(C)C [Example 222, 2-(3-(tert-butyl(methyl)amino)-2-methylquinoxalin-5-yl)-6,7-dihydro-1H-pyrrolo[3,2-c]pyridin-4(5H)-one]	3.5 nM	2.1 nM			397 nM	

Continued, in another order:

IC50 (Pim-1; [2])	IC50 (Pim-2)	IC50 [1, 3]	IC50 ([1]; read-out: KMS-12-BM IC50 IP, KMS-12-BM cells, phospho-BAD (S112) vs total BAD, 1 hour 50 min with compound)	Compound	IC50 [1, 4]	IC50 (Pim-1)
0.2 nM	0.3 nM	60.1 nM		CC(C)(C)Nc1cnc2cccc(-c3cc4c([nH]3)CCNC4=O)c2n1 [Example 210, 2-(3-(tert-butylamino)quinoxalin-5-yl)-6,7-dihydro-1H-pyrrolo[3,2-c]pyridin-4(5H)-one]		
1.8 nM	5 nM	1220 nM		COc1nc2cccc(-c3cc4c([nH]3)CCNC4=O)c2nc1NC(C)(C)C [Example 276, 2-(3-(tert-butylamino)-2-methoxy-5-quinoxalinyl)-1,5,6,7-tetrahydro-4H-pyrrolo[3,2-c]pyridin-4-one]		
0.1 nM	0.1 nM	86.3 nM		CCN(c1cnc2cccc(-c3cc4c([nH]3)CCNC4=O)c2n1)C(C)(C)C [Example 220, 2-(3-(tert-butyl(ethyl)amino)quinoxalin-5-yl)-6,7-dihydro-1H-pyrrolo[3,2-c]pyridin-4(5H)-one]		
1.3 nM	1.4 nM	181 nM		CC(C)(C)Nc1cnc2cccc(-c3cc4n(c3)CCNC4=O)c2n1 [Example 173, 7-(3-(tert-butylamino)quinoxalin-5-yl)-3,4-dihydropyrrolo[1,2-a]pyrazin-1(2H)-one]		
1.3 nM	2 nM	418 nM		Cc1nc2cccc(-c3cc4c([nH]3)CCNC4=O)c2nc1N[C@H](C)C1CC1 [Example 271, 2-(3-(((1R)-1-cyclopropylethyl)amino)-2-methyl-5-quinoxalinyl)-1,5,6,7-tetrahydro-4H-pyrrolo[3,2-c]pyridin-4-one]		
2.2 nM	1.4 nM	215 nM		Cc1nc2cccc(-c3cc4c([nH]3)CCNC4=O)c2nc1N[C@@H](C)C1CC1 [Example 270, 2-(3-(((1S)-1-cyclopropylethyl)amino)-2-methyl-5-quinoxalinyl)-1,5,6,7-tetrahydro-4H-pyrrolo[3,2-c]pyridin-4-one]		
1.34 nM	0.961 nM	144 nM		Cc1nc2cccc(-c3cc4n(c3)CCNC4=O)c2nc1NC1(C)CC1 [Example 100, 7-(2-methyl-3-((1-methylcyclopropyl)amino)quinoxalin-5-yl)-3,4-dihydropyrrolo[1,2-a]pyrazin-1(2H)-one 2,2,2-trifluoroacetate]		
1 nM	0.4 nM	169 nM		Cc1nc2cccc(-c3cc4c([nH]3)CCNC4=O)c2nc1NC1(CO)CC1 [Example 277, 2-(3-((1-(hydroxymethyl)cyclopropyl)amino)-2-methyl-5-quinoxalinyl)-1,5,6,7-tetrahydro-4H-pyrrolo[3,2-c]pyridin-4-one]		
1.3 nM	2.3 nM	538 nM		CC1(C)CCCCN1c1cnc2cccc(-c3cc4c([nH]3)CCNC4=O)c2n1 [Example 212, 2-(3-(2,2-dimethylpiperidin-1-yl)quinoxalin-5-yl)-6,7-dihydro-1H-pyrrolo[3,2-c]pyridin-4(5H)-one]		
1.6 nM	1.23 nM	243 nM		Cc1nc2cccc(-c3cc4c(=O)[nH]cnc4[nH]3)c2nc1NC1CCC1 [Example 260, 6-(3-(cyclobutylamino)-2-methylquinoxalin-5-yl)-3H-pyrrolo[2,3-d]pyrimidin-4(7H)-one]		
0.4 nM	0.6 nM	167 nM		Cc1nc2cccc(-c3cc4c([nH]3)CCNC4=O)c2nc1NC1(C)CCCC1 [Example 67, 2-(2-methyl-3-((1-methylcyclopentyl)amino)-5-quinoxalinyl)-1,5,6,7-tetrahydro-4H-pyrrolo[3,2-c]pyridin-4-one]		
2 nM	5.3 nM	933 nM		CC1(C)CNCCN1c1cnc2cccc(-c3cc4c([nH]3)CCNC4=O)c2n1 [Example 217, 2-(3-(2,2-dimethylpiperazin-1-yl)quinoxalin-5-yl)-6,7-dihydro-1H-pyrrolo[3,2-c]pyridin-4(5H)-one]		
1.22 nM	1.29 nM	252 nM		Cc1nc2cccc(-c3cc4c(=O)[nH]cnc4[nH]3)c2nc1NC(C)(C)C [Example 261, 6-(3-(tert-butylamino)-2-methylquinoxalin-5-yl)-3H-pyrrolo[2,3-d]pyrimidin-4(7H)-one]		
2.7 nM	0.7 nM		215 nM	COCC(C)(C)Nc1nc2c(-c3cc4c([nH]3)CCNC4=O)cccc2nc1C [Example 66, 2-(3-((2-methoxy-1,1-dimethylethyl)amino)-2-methyl-5-quinoxalinyl)-1,5,6,7-tetrahydro-4H-pyrrolo[3,2-c]pyridin-4-one]		
